Measured values from patent US5968949A, “Substituted hydroisoquinoline derivatives and their use as pharmaceuticals” (SmithKline Beecham S.p.A., priority 1995, dated 1999).

System: delta receptor
Test: Radioligand binding assay, [3H]-DADLE in mouse brain membranes
Settings: stated in words after the delta affinity range
Procedure: The activity of the compounds of the present invention as selective delta ligands is determined in radioligand binding assays as described below.
Mouse brain membranes were prepared as described by Kosterlitz (Br. J. Pharmacol., 1981, 73, 939.). The binding of the preferential delta ligand [^3 H]-[D-Ala^2,D-Leu^5 ]-enkephalin (DADLE) was evaluated at its KD concentration (1.3 nM) in presence of 40 nM of the unlabelled mu ligand [D-Ala^2, MePhe^4, Gly-ol5]-enkephalin (DAMGO). The binding of the mu ligand [^3 H]-DAMGO (Eur. J. Pharmacol., 1989, 166, 213) and of the kappa ligand [^3 H]-U69593 (Excerpta Medica, 1990, 211) were carried out at 0.5 nM. The non-specific binding was determined in presence of naloxone (10 μM) for all tritiated ligands. Binding data were expressed as percentage of inhibition and fitted the following equation: f(x)=100.X/(IC50 +X) where X are cold drug concentration values. The IC50 obtained were used to calculate the inhibitory constants (Ki) accordingly to the Cheng and Prusoff relation (Biochem. Pharmacol., 1973, 22, 3099).

## CN1CC[C@]2(c3cccc(O)c3)CC(c3ccccc3)=CC[C@H]2C1 (racemic) [Example 3, (±)-trans-4a-(3-Hydroxyphenyl)-2-methyl-6-phenyl-1,2,3,4,4a,5,8,8a-octahydroisoquinoline]
  potency rank among the exemplified compounds: most potent of the exemplified compounds
